Patent US10689354B2, “Aminoazole derivative” (Teijin Pharma Limited, priority 2015, dated 2020)

How the values were obtained:
[1] = target: T1, human androgen receptor (Homo sapiens, UniProt P10275); experiment: Reporter assay of an androgen receptor responsive sequence (luciferase, transiently transfected HEK293 cells); format: cell-based; conditions: 24 hours incubation, relative to activity of 100 nM DHT, read-out: AR transcriptive activity (pEC50) (converted)
T1 construct: expressed in transfected cells; host or cells: HEK293
T1 sequence (P10275 1-920): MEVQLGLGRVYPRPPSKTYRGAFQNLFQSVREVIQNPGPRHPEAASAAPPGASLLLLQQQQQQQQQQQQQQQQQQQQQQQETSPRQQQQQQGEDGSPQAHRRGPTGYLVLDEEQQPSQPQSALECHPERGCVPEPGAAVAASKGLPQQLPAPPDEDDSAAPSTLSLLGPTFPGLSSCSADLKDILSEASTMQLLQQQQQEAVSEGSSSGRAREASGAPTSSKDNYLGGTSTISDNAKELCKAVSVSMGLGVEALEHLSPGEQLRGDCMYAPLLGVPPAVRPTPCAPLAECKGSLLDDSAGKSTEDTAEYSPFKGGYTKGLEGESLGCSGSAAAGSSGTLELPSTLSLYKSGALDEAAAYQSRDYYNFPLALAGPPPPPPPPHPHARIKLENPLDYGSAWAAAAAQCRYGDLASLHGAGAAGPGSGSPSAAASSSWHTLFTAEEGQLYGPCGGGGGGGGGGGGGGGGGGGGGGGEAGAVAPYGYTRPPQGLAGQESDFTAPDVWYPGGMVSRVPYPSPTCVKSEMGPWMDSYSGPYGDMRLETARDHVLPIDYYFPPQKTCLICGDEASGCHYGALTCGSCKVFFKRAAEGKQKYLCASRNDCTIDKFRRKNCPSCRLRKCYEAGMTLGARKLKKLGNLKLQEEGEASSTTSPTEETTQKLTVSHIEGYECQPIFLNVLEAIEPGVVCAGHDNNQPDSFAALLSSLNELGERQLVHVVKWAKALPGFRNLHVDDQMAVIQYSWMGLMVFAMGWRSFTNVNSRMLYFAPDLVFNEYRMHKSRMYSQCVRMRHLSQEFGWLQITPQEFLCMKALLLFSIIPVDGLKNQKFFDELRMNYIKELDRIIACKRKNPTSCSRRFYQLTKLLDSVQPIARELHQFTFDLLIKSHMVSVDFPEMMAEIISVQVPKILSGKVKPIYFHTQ
In short: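 HEK293 cells transiently transfected for 3 h with ARE-firefly luciferase, full-length human AR and TK-Renilla plasmids, then exposed to compound for 24 h at 37 °C in 5% charcoal-treated FBS/DMEM. Dual-Glo luminescence read; pEC50 from 4-parameter fit relative to 100 nM DHT.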

[2] = target: T2, androgen receptor (AR-LBD) (Rattus norvegicus, UniProt P15207); experiment: Evaluation of androgen receptor affinity (PolarScreen Androgen Receptor Competitor Assay Kit, Red; fluorescence polarization); conditions: 22° C. for 5 hours, relative to binding rate of 1 μM DHT, read-out: AR affinity (pEC50) (converted)
T2 construct: 5 μL of 2×AR-LBD/Fluoromone AL Red Complex contained in the kit; purchased Invitrogen
T2 sequence (P15207 651-882 limits assumed): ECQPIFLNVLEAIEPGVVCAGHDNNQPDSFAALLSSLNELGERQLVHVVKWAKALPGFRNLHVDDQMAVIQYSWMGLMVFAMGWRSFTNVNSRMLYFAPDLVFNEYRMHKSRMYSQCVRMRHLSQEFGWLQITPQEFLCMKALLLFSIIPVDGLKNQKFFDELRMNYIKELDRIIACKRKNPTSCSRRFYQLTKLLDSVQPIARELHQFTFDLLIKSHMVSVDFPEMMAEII
In short: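 Compounds were mixed with AR-LBD/Fluoromone AL Red complex and incubated 5 h at 22° C before fluorescence polarization was read. Binding was expressed relative to 1 μM dihydrotestosterone, and pEC50 (concentration giving 50% of that binding) came from a 4-parameter fit.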

| Compound | EC50 [1] [µM] | EC50 [2] [µM] |
| --- | --- | --- |
| COc1cccc(CN(c2ccc(C#N)cc2)c2nc(C(=O)NS(C)(=O)=O)c(C)s2)n1 [Compound 491, 2-[4-cyano-N-[(6-methox-2-pyridyl)methyl]anilino]-5-methyl-N-methylsulfonyl-thiazole-4-carboxamide] | 0.316 | 0.1 |
| CS(=O)(=O)NC(=O)c1nc(N(Cc2cc3ccccc3s2)c2ccc(C#N)cc2)sc1Br [Compound 609, 2-[N-(benzothiophen-2-ylmethyl)-4-cyano-anilino]-5-bromo-N-methylsulfonyl-thiazole-4-carboxamide] | 0.0398 | 0.0316 |
| Cc1sc(N(Cc2ccc(Cl)cc2F)c2ccc(C#N)cc2)nc1C(=O)NS(C)(=O)=O [Compound 70, 2-[N-[(4-chloro-2-fluoro-phenyl)methyl]-4-cyano-anilino]-5-methyl-N-methylsulfonyl-thiazole-4-carboxamide] | 0.0631 | 0.0316 |
| Cc1sc(N(CC23CC4CC(CC(C4)C2)C3)c2ccc(C#N)cc2)nc1C(=O)NS(C)(=O)=O [Compound 76, 2-[N-(1-adamantylmethyl)-4-cyano-anilino]-5-methyl-N-methylsulfonyl-thiazole-4-carboxamide] | > 10 | 0.0501 |
| Cc1sc(N(Cc2ccc(Cl)cc2Cl)c2ccc(C#N)cc2)nc1C(=O)NS(C)(=O)=O [Compound 413, 2-[4-cyano-N-[(2,4-dichlorophenyl)methyl]anilino]-5-methyl-N-methylsulfonyl-thiazole-4-carboxamide] | 0.501 | 0.0251 |
| Cc1sc(N(CCc2ccc(C#N)cc2)Cc2ccc(OC(F)(F)F)cc2)nc1C(=O)NS(C)(=O)=O [Compound 323, 2-[2-(4-cyanophenyl)ethyl-[[4-(trifluoromethoxy)phenyl]methyl]amino]-5-methyl-N-methylsulfonyl-thiazole-4-carboxamide] | 0.251 | 0.0251 |
| Cc1sc(N(Cc2cc3ccccc3s2)c2ccc(C#N)cc2)nc1C(=O)NS(C)(=O)=O [Compound 51, 2-[N-(benzothiophen-2-ylmethyl)-4-cyano-anilino]-5-methyl-N-methylsulfonyl-thiazole-4-carboxamide] | 0.0316 | 0.0501 |
| Cc1sc(N(CCc2ccc(Cl)cc2)Cc2cccc(Cl)c2)nc1C(=O)NS(C)(=O)=O [Compound 144, 2-[2-(4-chlorophenyl)ethyl-[(3-chlorophenyl)methyl]amino]-5-methyl-N-methylsulfonyl-thiazole-4-carboxamide] | 0.0631 | 0.0251 |
| Cc1sc(N(Cc2ccccc2)c2ccc(OC(F)F)cc2)nc1C(=O)NS(C)(=O)=O [Compound 91, 2-[N-benzyl-4-(difluoromethoxy)anilino]-5-methyl-N-methylsulfonyl-thiazole-4-carboxamide] | 1.58 | 0.1 |
| COCCOc1ccc(CN(c2ccc(C#N)cc2)c2nc(C(=O)NS(C)(=O)=O)c(C)s2)cc1 [Compound 566, 2-[4-cyano-N-[[4-(2-methoxyethoxy)phenyl]methyl]anilino]-5-methyl-N-methylsulfonyl-thiazole-4-carboxamide] | 1.58 | 0.2 |
| Cc1oc(N(Cc2ccc3ncsc3c2)c2ccc(C#N)cc2)nc1C(=O)NS(C)(=O)=O [Compound 616, 2-[N-(1,3-benzothiazol-6-ylmethyl)-4-cyano-anilino]-5-methyl-N-methylsulfonyl-oxazole-4-carboxamide] | > 10 | 0.251 |
| Cc1sc(N(Cc2ccc(Cl)cc2)c2ccc(C#N)cc2)nc1C(=O)NS(C)(=O)=O [Compound 23, 2-[N-[(4-chlorophenyl)methyl]-4-cyano-anilino]-5-methyl-N-methylsulfonyl-thiazole-4-carboxamide] | 0.0251 | 0.0631 |
| Cc1sc(N(Cc2ccccc2OC(F)F)c2ccc(C#N)cc2)nc1C(=O)NS(C)(=O)=O [Compound 5, 2-[4-cyano-N-[[2-(difluoromethoxy)phenyl]methyl]anilino]-5-methyl-N-methylsulfonyl-thiazole-4-carboxamide] | 0.251 | 0.1 |

Results, then the compound that gave them:

| EC50 [1] [µM] | EC50 [2] [µM] | Compound |
| --- | --- | --- |
| 0.0631 | 0.0251 | Cc1sc(N(CCc2ccc(Cl)cc2)Cc2ccc(Cl)cc2)nc1C(=O)NS(=O)(=O)Cc1cccnc1 [Compound 695, 2-[2-(4-chlorophenyl)ethyl-[(4-chlorophenyl)methyl]amino]-5-methyl-N-(3-pyridylmethylsulfonyl)thiazole-4-carboxamide] |
| 1 | 0.158 | Cc1sc(N(CCc2ccsc2)Cc2ccccc2)nc1C(=O)NS(C)(=O)=O [Example 313, 2-[benzyl-[2-(3-thienyl)ethyl]amino]-5-methyl-N-methylsulfonyl-thiazole-4-carboxamide] |
| 0.158 | 0.0316 | CCc1oc(N(Cc2ccc(Cl)cc2)c2ccc(C#N)cc2)nc1C(=O)NS(C)(=O)=O [Compound 623, 2-[N-[(4-chlorophenyl)methyl]-4-cyano-anilino]-5-ethyl-N-methylsulfonyl-oxazole-4-carboxamide] |
| > 10 | 0.2 | Cc1sc(N(CCc2ccc(Cl)cc2)Cc2ccc(OC(F)(F)F)cc2)nc1C(=O)NS(=O)(=O)C1CC1 [Compound 702, 2-[2-(4-chlorophenyl)ethyl-[[4-(trifluoromethoxy)phenyl]methyl]amino]-N-cyclopropylsulfonyl-5-methyl-thiazole-4-carboxamide] |
| 1.26 | 0.0631 | Cc1sc(N(Cc2cccc(N3CCCC3)c2)c2ccc(C#N)cc2)nc1C(=O)NS(C)(=O)=O [Example 216, 2-[4-cyano-N-[(3-pyrrolidin-1-ylphenyl)methyl]anilino]-5-methyl-N-methylsulfonyl-thiazole-4-carboxamide] |
| 0.2 | 0.0316 | CCc1oc(N(Cc2ccc(Br)c(Cl)c2)c2ccc(C#N)cc2)nc1C(=O)NS(C)(=O)=O [Compound 650, 2-[N-[(4-bromo-3-chloro-phenyl)methyl]-4-cyano-anilino]-5-ethyl-N-methylsulfonyl-oxazole-4-carboxamide] |
| > 10 | 0.501 | Cc1sc(N(Cc2ccc(Cl)cc2C#N)c2ccc(C#N)cc2)nc1C(=O)NS(C)(=O)=O [Example 184, 2-[N-[(4-chloro-2-cyano-phenyl)methyl]-4-cyano-anilino]-5-methyl-N-methylsulfonyl-thiazole-4-carboxamide] |
| 0.0631 | 0.0316 | CS(=O)(=O)NC(=O)c1nc(N(Cc2cccc(OC(F)(F)F)c2)c2ccc(C#N)cc2)sc1Cl [Example 273, 5-chloro-2-[4-cyano-N-[[3-(trifluoromethoxy)phenyl]methyl]anilino]-N-methylsulfonyl-thiazole-4-carboxamide] |
| 0.0794 | 0.0316 | CS(=O)(=O)NC(=O)c1nc(N(Cc2cccc(OC(F)(F)F)c2)c2ccc(C#N)cc2)sc1Br [Example 252, 5-bromo-2-[4-cyano-N-[[3-(trifluoromethoxy)phenyl]methyl]anilino]-N-methylsulfonyl-thiazole-4-carboxamide] |
| > 10 | 0.1 | Cc1sc(N(CCC2CCCCC2)Cc2ccc(OC(F)(F)F)cc2)nc1C(=O)NS(C)(=O)=O [Compound 732, 2-[2-cyclohexylethyl-[[4-(trifluoromethoxy)phenyl]methyl]amino]-5-methyl-N-methylsulfonyl-thiazole-4-carboxamide] |
| 0.251 | 0.0398 | Cc1sc(N(CCc2ccc(OC(F)(F)F)cc2)Cc2ccccc2)nc1C(=O)NS(C)(=O)=O [Compound 684, 2-[benzyl-[2-[4-(trifluoromethoxy)phenyl]ethyl]amino]-5-methyl-N-methylsulfonyl-thiazole-4-carboxamide] |
